Experimental data from patent US20240325389A1, “NEW THERAPEUTIC TARGETS WITH AN ANTI-INFLAMMATORY AND ANTI-INTERFERON EFFECT” (priority 2020, published 2024).
Like-named read-outs stand apart in the source and are kept apart here.

Experiments:
[1] = test system: monocytes of healthy donors; test: Intracellular TNFα production in monocytes after TLR4 (LPS) stimulation, flow cytometry; assay type: cell-based, human; conditions: for production of inflammatory cytokines: PBMCs and purified monocytes of healthy donors, Toll-like receptors 2/4 (lipoteichoic acid/LPS)
[2] = test system: monocytes of healthy donors; test: Intracellular IL-1β and TNFα in monocytes after inflammasome activation by uric acid crystals (MSU, gout model), flow cytometry; assay type: cell-based, human; conditions: for production of inflammatory cytokines: monocytes of healthy donors, activation of the inflammasome by uric acid crystals
[3] = test system: neurones infected by the prions; assay type: cell-based
[4] = test system: peripheral blood mononuclear cells (PBMCs) of healthy donors; test: Cytokine and interferon secretion by PBMCs after TLR7/8 (R848) stimulation, LegendPlex; assay type: cell-based, human; conditions: for production and secretion of pro-inflammatory cytokines, such as IL-6, IL-1p and the interferons induced by the TLR7/8 stimulation / production of TNFα induced by the TLR7/8 stimulation: human PBMCs incubated with inhibitor before R848
[5] = test system: monocytes of healthy donors; test: Intracellular TNFα production in monocytes after TLR7/8 (R848) stimulation, flow cytometry; assay type: cell-based, human; conditions: for production of inflammatory cytokines: PBMCs and purified monocytes of healthy donors, Toll-like receptor 7/8 (R848); for intracellular production of inflammatory cytokines (TNFα): monocytes, inhibitor 1 h before R848 5 μg/ml (TLR7/8), 16 h
[6] = test system: T lymphocytes; test: Activation of T lymphocytes by CD3/CD28 beads (CD69), flow cytometry; assay type: cell-based, human; conditions: inhibitor 1 h at 1 and 5 μM, then CD3/CD28 beads 3 days
[7] = test system: HEK293; test: Interferon production by cGAMP-stimulated HEK293 non-immune cells (STING-37), luciferase; conditions: inhibitor at 1 μM, cGAMP 3 μg/ml, 24 h
[8] = test system: THP1-Dual; test: mRNA encoding TNFα, IL6 and MCP1 in LPS-activated THP1-Dual monocytes, RT-qPCR; assay type: cell-based, human; conditions: inhibitor 1 h before LPS 100 ng/ml
[9] = test system: peripheral blood mononuclear cells (PBMCs) of healthy donors; test: Interferons secreted by R848-stimulated PBMCs, STING-37 reporter cell line; assay type: cell-based, human
[10] = test system: peripheral blood mononuclear cells (PBMCs) of healthy donors; test: Cytokine and interferon secretion by PBMCs in response to HIV, LegendPlex; assay type: cell-based, human; conditions: inhibitor 1 h before AT-2-inactivated HIV-1MN, 24 h
[11] = test system: peripheral blood mononuclear cells (PBMCs); test: Interferon production by cGAMP-stimulated PBMCs, STING-37 reporter
[12] = test system: 1C11^5-HT serotonergic neurons; test: mRNA encoding TNFα, IL6 and MCP1 in LPS-activated 1C11^5-HT neurons, RT-qPCR; assay type: cell-based, Mus; conditions: inhibitor 1 h before LPS 100 ng/ml
[13] = test system: peripheral blood mononuclear cells (PBMCs) of healthy donors; test: Cytokine and interferon secretion by PBMCs after TLR4 (LPS) stimulation, LegendPlex; assay type: cell-based, human; conditions: inhibitor 1 h before LPS 100 ng/ml (TLR4), 24 h
[14] = test system: B lymphocytes; test: Activation of B lymphocytes by CpG-A (CD69), flow cytometry; assay type: cell-based, human; conditions: inhibitor 1 h at 1 μM, then CpG-A 1 μg/ml (TLR9) 24 h
[15] = test system: peripheral blood mononuclear cells (PBMCs) of healthy donors; test: Test for toxicity of the compounds on PBMCs (CellTiter-Glo, ATP); assay type: cell-based, human; conditions: 24 h of cell culture
Procedure: Test for toxicity of the compounds on the peripheral blood mononuclear cells (PBMCs).
After 24 h of cell culture, the cell viability was determined using the CellTiter-Glo reagent (Promega), which evaluates the amount of ATP by luminescence using the EnSpire.

[16] = test system: 1C11 neuroectodermal stem cells; test: mRNA encoding TNFα, IL6 and MCP1 in LPS-activated 1C11 stem cells, RT-qPCR; assay type: cell-based, Mus; conditions: inhibitor 1 h before LPS 100 ng/ml
[17] = test system: THP1-Dual; test: Interferon response of cGAMP-stimulated THP1-Dual cells, luciferase
[18] = test system: monocytes of patients suffering from juvenile idiopathic arthritis; test: Spontaneous TNFα production by monocytes of juvenile idiopathic arthritis patients, SIMOA; assay type: cell-based, human; conditions: monocytes incubated with inhibitor for 24 h, no stimulation
[19] = test system: monocytes of healthy donors; test: Intracellular TNFα production in monocytes after TLR2 (LTA) stimulation, flow cytometry; assay type: cell-based, human; conditions: inhibitor 1 h before LTA 1 μg/ml (TLR2), 16 h
[20] = test system: DBA/1J mice; conditions: for total average arthritis scores (histopathology): with respect to the control vehicle
[21] = test system: plasmacytoid dendritic cells (pDC) of healthy donors; test: Intracellular IFNα and TNFα in plasmacytoid dendritic cells in response to HIV, flow cytometry; assay type: cell-based, human; conditions: inhibitor 1 h before AT-2-inactivated HIV-1MN, 16 h
[22] = cGAMP stimulation, CellTiter Glo
[23] = monocytes, inhibitor 1 h before MSU 50 μg/ml, 16 h
[24] = 10 mg/kg daily oral, terminal plasma, ELISA

C[C@@H](N)[C@H]1CC[C@H](C(=O)Nc2ccncc2)CC1 [Y27632]
production of inflammatory cytokines [1]: capable of inhibiting
production of inflammatory cytokines [2]: capable of inhibiting
level of TNFα in the culture medium [3]: re-establishes
production and secretion of pro-inflammatory cytokines, such as IL-6, IL-1p and the interferons induced by the TLR7/8 stimulation [4]: inhibits
production of TNFα induced by the TLR7/8 stimulation [4]: inhibits
production of inflammatory cytokines [5]: capable of inhibiting
intracellular production of inflammatory cytokines (TNFα) [5]: inhibits, according to a dosage effect

Cc1cncc2cccc(S(=O)(=O)N3CCCNCC3C)c12 (centres unmarked) [formula (VIII), dimethylfasudil]
level of TNFα in the culture medium [3]: re-establishes
production and secretion of pro-inflammatory cytokines, such as IL-6, IL-1p and the interferons induced by the TLR7/8 stimulation [4]: inhibits
production of TNFα induced by the TLR7/8 stimulation [4]: inhibits

O=C(Nc1cccc(Nc2ncc(Br)c(NCCc3c[nH]cn3)n2)c1)N1CCCC1 [BX912]
production of inflammatory cytokines [1]: capable of inhibiting
production of inflammatory cytokines (TNFα) ([1]; monocytes, inhibitor 1 h before LPS 100 ng/ml (TLR4), 16 h): inhibits, according to a dosage effect
expression of the CD69 marker at the surface of the T lymphocytes [6]: inhibits, according to a dosage effect
viability of the T lymphocytes [6]: without affecting the viability
production of interferon induced by the STING ligand [7]: does not block
concentration from which the transcription of the gene encoding TNFα, IL6 and MCP1 induced by LPS is reduced, according to a dosage effect [8]: ≥ 0.5 µM
secretion of interferons ([9]; curative: inhibitor 1 h after R848 (TLR7/8) stimulation, FIG. 15C): blocking
secretion of interferons ([9]; inhibitor during the R848 (TLR7/8) stimulation, FIG. 15B): blocking
secretion of interferons ([9]; preventive: inhibitor 1 h before R848 (TLR7/8) stimulation, FIG. 15A): blocking
secretion of the inflammatory cytokines (IL-6, IL-1β, TNFα, P10) and the interferons (IFNα2, IFNβ, IFN11) [10]: inhibits
concentration from which the production of interferons (IFN) induced by cGAMP is blocked, according to a dosage effect ([11]; PBMCs, inhibitor 1 h before cGAMP 3 μg/ml, 24 h): ≥ 1 µM
viability of the PBMCs [11, 22]: without affecting the viability
production of inflammatory cytokines [2]: capable of inhibiting
intracellular production of IL-1β [2, 23]: inhibits
production of TNFα [2, 23]: inhibits
transcription of the genes encoding TNFα, IL6 and MCP1 induced by LPS [12]: does not block
secretion of the inflammatory cytokines (IL-6, IL-1β, TNFα, GM-CSF, IL-10) and the interferons (IFNI⅔, IFNβ, IFNg) [13]: inhibits
expression of the CD69 marker at the surface of the B lymphocytes [14]: inhibits, according to a dosage effect
viability of the B lymphocytes [14]: without affecting the viability
toxicity on the peripheral blood mononuclear cells (PBMCs) ([15]; PBMCs infected with HIV): no toxicity
toxicity on the peripheral blood mononuclear cells (PBMCs) ([15]; stimulation of the TLR4 receptors): no toxicity
toxicity on the immune cells (PBMCs) ([15]; stimulation of the TLR7/8 receptors): no toxicity
transcription of the genes encoding TNFα, IL6 and MCP1 induced by LPS [16]: does not block
concentration from which the production of interferons (IFN) induced by cGAMP is blocked, according to a dosage effect ([17]; THP1-Dual, inhibitor 1 h before cGAMP 3 μg/ml, 24 h): ≥ 1 µM
viability of the THP1-Dual [17, 22]: without affecting the viability
spontaneous production of TNFα [18]: inhibits
secretion of the inflammatory cytokines (IL-6, IL-1β, TNFα, IP10, GM-CSF, IL-10) and the interferons (IFN11, IFN12/3, IFNβ, IFNg) ([4]; PBMCs, inhibitor 1 h before R848 5 μg/ml (TLR7/8), 24 h): inhibits
production of inflammatory cytokines (TNFα) [19]: inhibits, according to a dosage effect
effect on progression and severity of the disease ([20]; 0.5 mg/kg daily oral (group 3)): no ameliorative effect
total average arthritis scores (histopathology) ([20]; 0.5 mg/kg daily oral (group 3)): slight reductions
rate of progression of the disease ([20]; 2 mg/kg daily oral (group 4)): significant reduction
reduction in the (overall) severity of the disease at the end of the study ([20]; 2 mg/kg daily oral (group 4)): 56%
reduction in the (overall) severity of the disease at the end of the study ([20]; 10 mg/kg daily oral): 82%
progression of the disease ([20]; 10 mg/kg daily oral (group 5)): stopped
reduction in the terminal plasma levels of IL-1i ([20]; 10 mg/kg daily oral (group 5), ELISA): 37%
decrease in terminal plasma IL-6 [20, 24]: 62%
rate of progression of the disease and severity of the disease ([20]; daily oral, 0.5, 2 and 10 mg/kg): dose-dependent reduction
production of inflammatory cytokines [5]: capable of inhibiting
intracellular production of inflammatory cytokines (TNFα) [5]: inhibits, according to a dosage effect
intracellular production of interferon IFNα [21]: inhibits
production of TNFα [21]: inhibits

C[C@]12C=CC(=O)C=C1CC[C@@H]1[C@@H]2[C@@H](O)C[C@@]2(C)[C@H]1CC[C@]2(O)C(=O)CO [prednisolone, reference compound]
reduction in the (overall) severity of the disease at the end of the study ([20]; 10 mg/kg daily oral): 95%
decrease in plasma IFNγ [20, 24]: 49%
decrease in plasma TNFα [20, 24]: 54%
decrease in terminal plasma IL-6 [20, 24]: 70%
total average arthritis scores (histopathology) ([20]; 10 mg/kg daily oral): lowest
